Here are results for six compounds from ChEMBL document CHEMBL4033745, “3D-QSAR (CoMFA, CoMSIA), molecular docking and molecular dynamics simulations study of 6-aryl-5-cyano-pyrimidine derivatives to explore the structure requirements of LSD1 inhibitors” (Bioorg Med Chem Lett, 2017).

This test deals with Lysine-specific histone demethylase 1A (Homo sapiens, UniProt O60341). Briefly: Inhibition of LSD1 (unknown origin). As to conditions: for pIC50: read-out: IC50.

By pIC50 is commonly meant the IC50 on a negative log10 scale, so that one unit is a factor of ten.

pIC50: −log10 of the molar value.

Consider `C#CCSc1nc(Nc2ccc(Cl)cc2)c(C#N)c(-c2ccccc2)n1`, for which the negative logarithm of the IC50 (pIC50) was 3.90. Still for that read-out and setting: with `COc1cc(-c2nc(SCc3ccc(F)cc3)nc(NNC(N)=S)c2C#N)cc(OC)c1OC` the figure was 3.90; with `C#CCSc1nc(Nc2ccc(F)cc2)c(C#N)c(-c2ccccc2)n1`, 3.90. On the same count and under the same terms, as for `C#CCSc1nc(Cl)c(C#N)c(-c2ccc([N+](=O)[O-])cc2)n1`, the figure is 3.90.

With `C#CCSc1nc(Nc2ccc([N+](=O)[O-])cc2)c(C#N)c(-c2ccccc2)n1`, the pIC50 is 3.90. Where the note is “read-out: pIC50 (converted)”, the IC50 was 123 µM.

Regarding `N#Cc1c(Cl)nc(SCc2cn(Cc3ccccc3Cl)nn2)nc1-c1ccc(Cl)cc1`, the pIC50 was 3.90.
